Test results: patent US20240316171A1, “COMPOSITIONS AND METHODS FOR TARGETED IMMUNOTHERAPY” (Dana-Farber Cancer Institute, Inc., priority 2018, published 2024)
Where two headings read alike, the source gives them in different places.

Experiments:
[1] = Stock solutions/solubility; type: physicochemical; conditions: thermodynamic from solid
Method: Compound 1 was not soluble in buffer solution 50 mM 4-(2-hydroxyethyl)-1-piperazineethanesulfonic acid (HEPES) pH 7 at 2 mg/ml at room temperature overnight. In contrast, DMSO readily dissolved compound 1 at 2 mg/ml forming a clear solution. Compound 2 dissolved immediately at 1.5 mg/ml in buffer solution 50 mM HEPES pH 7 forming a yellow solution.

[2] = Uncaging of compound 1 with hydrogen peroxide (fluorescence, HPLC); conditions: relatively high H2O2 concentrations (100 mM), HPLC analysis of products
Method: Hydrogen peroxide is expected to uncage compound 1 to produce compound 2. […] 20 μM compound 1 samples were prepared by 1:100 dilution of stock into 50 mM HEPES pH 7 buffer and the reaction started by […] to give final concentrations of 0.3, 0.03 or 0.003 percent. The concentration of the 30% stock H2O2 was confirmed by measuring the absorbance at 240 nm using an extinction coefficient of 43.6 M^−1 cm^−1.
A time-course of the kinetic response of compound 1 to H2O2 at 100 mM H2O2 is illustrated in FIG. 10. Multiple (3) peaks, including compound 1, were observed by HPLC. […] The possible side products are shown below.

[3] = Uncaging in samples not treated with H2O2; type: physicochemical
From the text: Fluorescence-detected HPLC confirmed that H2O2 reaction with compound 3 produced the desired product (4). […] Addition of 0.5M EDTA, pH 8.0 (Ultrapure Grade, Boston BioProducts) to the samples remedied the undesired uncaging of the compounds.

[4] = 50 mM HEPES buffer, aqueous buffer, 50 mM HEPES pH 7, compound 1 at room temperature overnight, read-out: solubility in buffer solution

O=C(CCN1C(=O)C=CC1=O)NCCOCCOCCC(=O)Nc1ccc2c(c1)C(=O)OC21c2ccc(O)cc2Oc2cc(O)ccc21 [Compound 2, N-(3′,6′-dihydroxy-3-oxo-3H-spiro[isobenzofuran-1,9′-xanthen]-5-yl)-3-(2-(2-(3-(2,5-dioxo-2,5-dihydro-1H-pyrrol-1-yl)propanamido)ethoxy)ethoxy)propanamide]
solubility [1, 4]: ≥ 1500 µg/mL

CC1(C)[C@@H]2CC3OB(c4ccc5c(c4)Oc4cc(B6OC7C[C@@H]8C[C@@H](C8(C)C)[C@]7(C)O6)ccc4C54OC(=O)c5cc(NC(=O)CCOCCOCCNC(=O)CCN6C(=O)C=CC6=O)ccc54)O[C@@]3(C)[C@H]1C2 (stereo partly drawn) [Compound 1, 3-(2,5-dioxo-2,5-dihydro-1H-pyrrol-1-yl)-N-(2-(2-(3-oxo-3-((3-oxo-3′,6′-bis((3aS,4S,6S)-3a,5,5-trimethylhexahydro-4,6-methanobenzo[d][1,3,2]dioxaborol-2-yl)-3H-spiro[isobenzofuran-1,9′-xanthen]-5-yl)amino)propoxy)ethoxy)ethyl)propanamide]
solubility [1, 4]: < 2000 µg/mL
solubility ([1]; organic solvent or mixture, DMSO, clear solution, read-out: solubility in DMSO): ≥ 2000 µg/mL
stability of maleimide moiety in the presence of H2O2 [2]: maleimide moiety is unstable
uncaging without H2O2 [3]: Slow uncaging

CC1(C)[C@@H]2C[C@H]1C1OB(c3ccc4c(c3)Oc3cc(B5OC6C[C@@H]7C[C@@H](C7(C)C)[C@]6(C)O5)ccc3C43OC(=O)c4cc(NC(=O)CCOCCOCCNC(=O)CCN5C(=O)CC(SC[C@H](N)C(=O)O)C5=O)ccc43)O[C@@]1(C)C2 (stereo partly drawn) [Compound 3, S-(2,5-dioxo-1-(3-oxo-3-((2-(2-(3-oxo-3-((3-oxo-3′-((3aS,4S,6S)-3a,5,5-trimethylhexahydro-4,6-methanobenzo[d][1,3,2]dioxaborol-2-yl)-6′-((4R,6R,7aS)-5,5,7a-trimethylhexahydro-4,6-methanobenzo[d][1,3,2]dioxaborol-2-yl)-3H-spiro[isobenzofuran-1,9′-xanthen]-5-yl)amino)propoxy)ethoxy)ethyl)amino)propyl)pyrrolidin-3-yl)cysteine]
uncaging without H2O2 [3]: Slow uncaging
